{
  "source": "patent US12239686B2",
  "about": "“Immune checkpoint inhibitor combinations” (LYTIX BIOPHARMA AS, priority 2014, dated 2025)",
  "key": {"A375 cells": {"tested_on": "A375 cells", "test": "Confocal microscopy, fluorescence-labeled peptide internalization", "format": "cell-based, human", "conditions": "1.5 and 3 μM", "method": "Fixed cells, fluorescence-labeled peptide-Subconfluential A375 cells were seeded at 8,000 cells/well as above, and transfected on the second day using the Lipofectamine LTX with Plus transfection reagents (Invitrogen) following the manufacturer's protocol. The mitochondria were labeled using the pDsRed2-Mito, and the nucleus was labeled using the GFP-Histon2B plasmid (Imaging Platform, University of Tromsø). A day after transfection, cells were washed twice with serum-free RPMI, and treated at different concentration and incubation periods with LTX-315 Pacific Blue or LTX-328 Pacific Blue.\nControl cells were treated with unlabeled LTX-315 and also with serum-free RPMI only. After incubation, cells were fixed with 4% paraformaldehyde in PBS, and the wells were covered with Prolong Gold antifade (Invitrogen). Cells were further analyzed by use of a Leica TCS SP5 confocal microscope, with a […] objective. Pacific Blue, GFP and Ds Red were excited using UV, with 488 and 561 lasers, and fluorescence channels were sequentially detected using the following band passes: UV: 420-480 nm (with attenuation), 488: 501-550 nm and 561: 576-676 nm."}, "[1]": {"tested_on": "murine A20 B-cell lymphoma", "test": "Adoptive spleen cell transfer, A20 B-cell lymphoma model", "format": "in vivo, mice", "conditions": "donors: LTX-315 1 mg intratumoural once daily 3 days, complete regression", "method": "[…] Balb/c mice (n=32) were each inoculated with A20 cells (5 million in 50 μL s.c.) on the abdominal surface. Once tumours had reached 20 mm^2 they were injected with LTX-315 (1 mg) injected intratumourally, once daily for 3 days, in a volume of 50 μL. Tumour size (mm^2) and body weight were subsequently monitored and a further injection of LTX-315 was given if any tumour re-growth was observed. Subsequently, mice showing complete tumour regression were sacrificed and used as donors for transfer of splenocytes while naive donor mice were used as controls. Spleens from donor mice were excised and cells isolated. Naive receiver mice were irradiated and divided into 2 groups. Group 1 received isolated splenocytes from cured mice, whereas group 2 received isolated splenocytes from naive mice. Freshly prepared cells were injected (20×106 per 100 μl) via the tail vein. Twenty four hours later receiver mice were inoculated with 5 million murine A20 B-cell lymphoma cells on the abdominal surface as described above. Tumour size and body weight were monitored until the maximum tumour burden of ˜125 mm^2 was reached, or a serious adverse events occurred (i.e. wound formation due to tumour tissue necrosis) at which point mice were sacrificed."}, "[2]": {"tested_on": "CT26WT colon carcinoma cells", "test": "Re-challenge with CT26WT cells in mice with complete tumour regression", "format": "in vivo", "method": "Methods: Female Balb-c mice (n=4), previously treated with LTX-315, 1 mg) or (n=9); previously treated with LTX-315 0.5 or 1 mg) were re-inoculated (s.c. in the abdominal area) with either murine A20 B cell lymphoma cells or CT26WT colon carcinoma cells (5 million) respectively 6 weeks following initial treatment with LTX-315. Tumour growth was monitored for up to 36 days following re-inoculation."}, "human A547 cells": {"tested_on": "human A547 cells", "test": "TEM, mitochondrial membrane", "format": "cell-based", "conditions": "10 μg/ml, 60 minutes", "method": "FIG. 16 LTX-315 disintegrates the mitochondria membrane. TEM images of FIG. 16a: human A547 melanoma cells treated with LTX-315 (10 μg/ml) for 60 minutes compared to FIG. 16b: control cells."}, "MCF-7/mdr": {"tested_on": "MCF-7/mdr", "format": "cell-based, human", "method": "(§1) Tumor cells were grown as adherent monolayers or as suspensions at 37° C. in a humidified atmosphere (5% CO2, 95% air). The culture medium was RPMI 1640 containing 2 mM L-glutamine (Lonza, Belgium) and supplemented with 10% fetal bovine serum (FBS, Lonza). For experimental use, the adherent cells were detached from the culture flask by a 5-minute treatment with trypsin-versene (Lonza), diluted in Hanks' medium without calcium or magnesium (Lonza) and neutralized by addition of complete culture medium. Cells were counted in a hemocytometer and their viability was assessed by 0.25% trypan blue exclusion.\n(§2) Tumor cells were plated in 96-well flat-bottom microtitration plates (Nunc, Dutscher, Brumath, France) and incubated at 37° C. for 24 hours before treatment in 190 μl of drug-free culture medium supplemented or not with 10% FBS for adherent or suspension growing cell lines, respectively.\n(§3) The adherent cell lines were washed once with 200 μl FBS-free culture medium before treatment. Tumor cells were incubated for 4 hours with 10 concentrations of compounds in ¼ dilution step with a top dose of 400 μM (range 4×10^−4 to 4×10^−10 M), with 1% (final concentration) Triton X-100 as positive control and FBS-free culture medium as negative control. The cells (190 μl) were incubated in a 200 μl final volume of FBS-free culture medium containing test substances at 37° C. under 5% CO2.\n(§4) Three independent experiments were performed, each concentration being tested in quadruplicate. Control cells were treated with vehicle alone. At the end of treatments, the cytotoxic activity was evaluated by a MTS assay (see § 3.3).\n(§5) Like MTT, MTS is bioreduced by cells into a formazan product that is directly soluble in culture medium without processing, unlike MTT.\n(§6) At the end of the cells treatment, 40 μl of a 0.22 μm filtered freshly combined solution of MTS (20 ml at 2 mg/ml, Ref G1111, Batch 235897, Exp 03/2009, Promega, Charbonnières, France) and PMS (1 ml at 0.92 mg/ml, Ref P9625, Batch 065K0961, Sigma) in Dulbecco's Phosphate Buffered Saline (DPBS, Ref 17-513Q, Batch 6MB0152, Cambrex), were added in each well. Culture plates were incubated for 2 h at 37° C. Absorbency (OD) were measured at 490 nm in each well using VICTOR^3TM 1420 multilabeled counter (Wallac, PerkinElmer, Courtaboeuf, France).\n(§7) [formula] • The OD values are the mean of 4 experimental measurements. • IC50: drug concentration to obtain a 50% inhibition of cell proliferation.\n(§8) The dose-response curves were plotted using XLFit 3 (IDBS, United Kingdom). The IC50 determination values were calculated using the XLFit 3 software from semi-log curves. Individual IC50 determination values as well as mean and SD values were generated.\n(§9) Resistance index was calculated using the following formula: […]\n(§10) Resistance index was calculated for each compound for each couple of sensitive and resistant cell lines. Individual resistance index was calculated when IC50 values of both sensitive and corresponding resistant cell lines were determined within same experiment. In addition, resistance index was also calculated ratio of mean IC50 values obtained during three independent experiments."}, "IGROV-1/CDDP": {"tested_on": "IGROV-1/CDDP", "format": "cell-based, human", "method": "as §1, §2, §3, §4, §5, §6, §7, §8, §9, §10"}},
  "note": "Non-standard residues stand in square brackets, D forms with d. Residues, ends and D or L forms follow the SMILES beside them. Dip = N[C@H](C(=O)O)C(c1ccccc1)c1ccccc1",
  "data": [
    {"smiles": "NCCCC[C@H](NC(=O)[C@@H](NC(=O)[C@H](Cc1c[nH]c2ccccc12)NC(=O)[C@H](CCCCN)NC(=O)[C@H](CCCCN)NC(=O)[C@H](Cc1c[nH]c2ccccc12)NC(=O)[C@H](Cc1c[nH]c2ccccc12)NC(=O)[C@H](CCCCN)NC(=O)[C@@H](N)CCCCN)C(c1ccccc1)c1ccccc1)C(N)=O", "note": "[LTX-315, K-K-W-W-K-K-W-Dip-K-NH2] (H-KKWWKKW[Dip]K-NH2)", "values": [
      {"measurement": "internalization of Pacific Blue-labeled peptide", "setting": "A375 cells", "value": "showed an accumulation around the mitochondria after 30 minutes of incubation but was not detected in the cell nucleus"},
      {"measurement": "tumour growth in irradiated recipients of splenocytes from LTX-315-cured donors vs naive donors", "setting": "[1]", "value": "Inhibition of tumour growth was observed"},
      {"measurement": "tumour growth after re-inoculation in comparison with control animals", "setting": "[2]; 9 mice previously treated with LTX-315 0.5 or 1 mg, P<0.01", "value": "inhibition (P<0.01) of tumour growth was observed"},
      {"measurement": "animals with complete regression after re-inoculation", "setting": "[2]; of 9 re-inoculated mice", "value": 2, "unit": "animals"},
      {"measurement": "mice in which inhibition was observed after re-inoculation", "setting": "[2]; of 9 re-inoculated mice", "value": 7, "unit": "mice"},
      {"measurement": "effect on the mitochondrial membrane (TEM)", "setting": "human A547 cells", "value": "disintegration of the mitochondrial membrane"},
      {"measurement": "Resistance index (RI)", "setting": "MCF-7/mdr; MCF-7/mdr vs sensitive MCF-7 (doxorubicin resistance)", "value": 1.12},
      {"measurement": "IC50", "setting": "MCF-7/mdr; MCF-7/mdr, resistant", "value": 1960, "unit": "nM"},
      {"measurement": "Resistance index (RI)", "setting": "IGROV-1/CDDP; IGROV-1/CDDP vs IGROV-1 (cisplatin resistance)", "value": 0.50},
      {"measurement": "IC50", "setting": "IGROV-1/CDDP; IGROV-1/CDDP, resistant", "value": 3.19, "unit": "µM"}
    ]}
  ]
}
